From patent US10995068B2, “Synthetic sphingolipid-like molecules, drugs, methods of their synthesis and methods of treatment” (The Regents of the University of California, priority 2015, dated 2021)
Where “and” joins values, the source holds several entries; their conditions need not be identical. Equal entries are not always repeated. Where two headings read alike, the source gives them in different places.

What was measured:
[1] = test system: PC3 prostate cancer cells; assay: Cell Titer Glo proliferation assay in PC3; format: cell-based, human; conditions: Cell Titer Glo, 72 h, Mean ± SEM, n ≥ 3, read-out: IC50 values in prostate cancer cell lines, PC3
Protocol: (§1) Previously presented compounds 1-4 (FIG. 23), compounds 5-8 (FIG. 28), and control compound FTY720 (FIG. 2) were used to treat the well-established PC3 and DU145 prostate cancer lines (FIG. 29 and Table 1). A Cell Titer Glo assay was performed to measure proliferation of the cancer lines.
(§2) Cell culture studies: Sup-B15 cells are maintained at 2-3 million/mL in RPMI 1640 (Mediatech) supplemented with 10% fetal calf serum (FCS, Sigma-Aldrich), 10 mM Hepes (Mediatech), 55 μM β-mercaptoethanol (Sigma-Aldrich), 2 mM L-glutamine (Mediatech), and antibiotics. All adherent cells are maintained at 70-80% confluence. Cell are cultured in the following media: PC3 & A549, Ham's F12K (Corning Cell Gro) supplemented with 10% FCS and antibiotics; DU145 cells, MEM (Corning Cell Gro) supplemented with 10% FCS, 1 mM sodium pyruvate (Mediatech), and antibiotics; SW620 & MDA-MB-231, DMEM (Corning Cell Gro) with 10% FCS, 1 mM sodium pyruvate (Mediatech), and antibiotics; Panc-1 cells, DMEM (Corning Cell Gro) supplemented with 10% FCS and antibiotics. All of the above cell lines are available from the ATCC.
(§3) Viability assays: Cell Titer Glo assays (Cell Titer Glo Luminescent Cell Viability Assay kit, cat #G7571, Promega Corporation) are performed in clear bottom 96-well black cell culture plates (cat #655090, Greiner Bio-One, NC, USA). After plating at 1,000 cells/well in volume of 100 μl, cells are left undisturbed for at least 24 h before drug addition. After 72 h, cells are prepared for analysis by adding 10 μl of 0.1% Triton-X100 in PBS with shaking for 1 min at room temperature (RT). Cell Titer-Glo cell lysis reagent (20 μl) is then added followed by 1 min of shaking and a 10 min incubation in the dark at RT. Luminescence is detected using an IVIS imaging system (IVIS Lumina II, Perkin Elmer, USA). […] IC50s are determined using GraphPad Prism (GraphPad Software, Inc, La Jolla, Calif.). SupB-15 viability was determined by flow cytometry. Cell Titer Glo assays were performed with the other cell lines.

[2] = test system: DU145 prostate cancer cells; assay: Cell Titer Glo proliferation assay in DU145; format: cell-based, human; conditions: Mean ± SEM, n ≥ 3, read-out: IC50 values in prostate cancer cell lines, DU145
Protocol: as §1, §2, §3

FL5.12 cells = assay: Vacuolation assay; format: cell-based, murine; design: key to Vacuolation score: 0-100 score: (3×%cat3+2×%cat2+1×%cat1)/3; cells graded 0-3 for vacuoles; conditions: for Vacuolation score / vacuolation (in words): FL5.12 cells; for Vacuolation score: 3 h in 2.5 μM compound except where otherwise indicated, mean ± SEM, n ≥3; for vacuolation (in words): at any dose / highest dose tested; for ability to induce vacuole formation: highest concentrations tested (30 μM)
Protocol: (§4) In an exemplified study, nutrient transporter down-regulation was monitored by quantifying surface levels of the amino acid transporter-associated protein, CD98, by flow cytometry. Vacuolation was scored in a range from 0 to […], as determined by a vacuolation assay described in greater detail in the Materials and Methods section below.
Vacuolation assay: Cells were evaluated at 100× using brightfield microscopy and a Nikon TE2000-S fluorescence microscope equipped with DIC filters. Vacuolation was quantified after a 3 h incubation period in 2.5 μM compound except where otherwise indicated. To calculate a vacuolation score, vacuolation severity in at least 15 individual cells/experiment was assessed qualitatively. Scores were assigned to individual cells as follows: 0=no vacuoles, 1=very small vacuoles, 2=multiple well-defined vacuoles, 3=multiple large vacuoles. To calculate the vacuolation score associated with a compound, the following formula was used: vacuolation score=[(3×% cells in category 3)+(2×% cells in category 2)+(1×% cells in category 1)]/3.
The score is divided by 3 so that a compound with 100% of its cells in category 3 would have a vacuolation score of 100. Three independent experiments were conducted and the vacuolation scores averaged to generate a mean+/−SEM. All cells were scored by one lab member after confirming that a blinded individual scored 5 compounds with similar results.

CD98 (4F2hc, SLC3A2) = assay: Surface CD98 nutrient transporter down-regulation by flow cytometry; format: cell-based, murine; conditions: FL5.12 cells; for % CD98 down-regulation: surface CD98 at 3 h, flow cytometry, mean ± SEM, n ≥3
From the text: as §4
(§5) Cell culture studies: FL5.12 cells (murine hematopoetic cells originally obtained from Craig Thompson, Memorial Sloan Kettering Cancer Center) were maintained at 0.1-0.5 million/ml in RPMI 1640 (Mediatech) supplemented with 10% fetal calf serum (FCS, Sigma-Aldrich), 10 mM Hepes (Mediatech), 500 pg/ml recombinant IL-3 (cat #575502, Biolegend), 55 μM β-mercaptoethanol (Sigma-Aldrich), 2 mM L-glutamine (Mediatech), and antibiotics. Cells were screened for Mycoplasma every 3 months using the Look-Out Mycoplasma PCR Detection kit (cat #MP0035, Sigma).
Nutrient transporter expression: Surface CD98 (4F2hc, SLC3A2) expression was measured at 3 h using phycoerythrin (PE)-conjugated rat anti-mouse CD98 antibody (Biolegend, cat #128208); analysis was restricted to viable cells. PE conjugated Rat IgG2a, k (cat #400508, Biolegend) was used as an isotype control. For staining, 200,000 cells were pelleted, re-suspended in 100 μl FACS block (PBS with 10% FCS and 0.05% NaN3) containing 0.25 μL anti-CD98 antibody, incubated on ice for 30 min, washed twice with 1 ml FACS wash (PBS containing 2% FCS and 0.05% NaN3), and analyzed on a BD LSR II flow cytometer. Data was processed with FlowJo software (Treestar).

[3] = test system: murine hematopoietic cell line FL5.12; assay: Viability of FL5.12 cells by vital dye exclusion; format: cell-based; conditions: for IC50: FL5.12 cells, 48 h, vital dye exclusion, n ≥3, read-out: IC50 (μM) [95% CI]
Protocol: as §5
IC50 values were calculated using GraphPad Prism (GraphPad Software, Inc, La Jolla, Calif.).

| SMILES | Vacuolation score (FL5.12 cells) | % CD98 down-regulation (CD98 (4F2hc, SLC3A2)) | IC50 [3] | further results |
| --- | --- | --- | --- | --- |
| CCCCCCCCc1ccc([C@@H]2C[C@@H](CO)N[C@@H]2CO)cc1 [Compound 2] |  |  |  | IC50 [1]: 6.1 ± 1 µM; IC50 ([2]; 72 h): 5.7 ± 0.4 µM |
| CCCCCCC=Cc1ccc(COC2CNC(CO)C2)cc1 (stereo not drawn) [Compound 119] | 70 ± 1 | 41 ± 3% | 2.4 µM |  |
| CCCCCCCCc1ccc([C@H]2CC(=O)N[C@H]2CO)cc1 [Compound 10] |  |  |  | IC50 [1]: > 20 µM; IC50 ([2]; 72 h): > 20 µM |
| CCCCCCCCCCCCC/C=C/[C@@H](O)[C@H](CO)N(C)C [Compound 108, dimethylsphingosine, reference compound] | 72 ± 3 | 69 ± 2% | 0.77 µM and 0.8 µM | fold more potent than sphingosine (106) ([3]; IC50, FL5.12 cells): ~5 fold |
| CCCCCCCCCCCCc1ccc(COC2CNC(CO)C2)cc1 (stereo not drawn) [Compound 114] | 3 ± 1 | 13 ± 3% | 10.1 µM |  |
| CCCCCCC=Cc1ccc(COC2CNC(CO)C2)cc1 (stereo not drawn) [Compound 113] | 27 ± 1 | 64 ± 1% | 1.4 µM |  |
| CCCCC=Cc1ccc(COC2CNC(CO)C2)cc1 (stereo not drawn) [Compound 112] | 0 | 30 ± 4% | 5.5 µM |  |
| CCCCCCCCCCc1ccc(COC2CNC(CO)C2)cc1 (stereo not drawn) [Compound 120] | 36 ± 5 | 28 ± 1% | 3.6 µM |  |
| CCCCCCCCc1ccc(COC2CNC(CO)C2)cc1 (stereo not drawn) [Compound 103] | 47 ± 2 | 48 ± 2% | 3 µM |  |
| CCCCCCCCCCCCc1ccc(COC2CNC(CO)C2)cc1 (stereo not drawn) [Compound 121] | 30 ± 2 | 14 ± 4% | 3.9 µM |  |
| CCCCCCC=Cc1ccc(C2CCN(C(C)=O)C2CO)cc1 (stereo not drawn) [Compound 135] | 2 ± 2 | 40 ± 2% | 46.2 µM | vacuolation (in words) (FL5.12 cells): failed to induce vacuolation |
| CCCCCCCCc1ccc(COC2CC(CO)N(C(=N)N)C2)cc1 (stereo not drawn) [Compound 132] | 0 | 35 ± 1% | 14.2 µM | ability to induce vacuole formation (FL5.12 cells): lost |
| CCCCCCC=Cc1ccc(C2CCNC2CO)cc1 (stereo not drawn) [Compound 125] | 84 ± 2 | 58 ± 3% | 1.7 µM |  |
| CCCCCCCCc1ccc([C@H]2C[C@H](CO)N[C@H]2CO)cc1 [Compound 1, (2R,3R,5R)-2,5-bis-hydroxymethyl-3-(4-octyl)phenyl pyrrolidine] |  |  |  | IC50 [1]: 7 ± 0.3 µM; IC50 ([2]; 72 h): 7.3 ± 0.8 µM |
| CCCCCCc1ccc(COC2CNC(CO)C2)cc1 (stereo not drawn) [Compound 111] | 0 | 30 ± 2% | 2.7 µM |  |
| CCCCCCCCc1ccc([C@@H]2CCN[C@H]2CO)cc1 [Compound 105] | 53 and 53 ± 3 | 47% and 47 ± 3% | 1.7 µM |  |

| SMILES | Vacuolation score (FL5.12 cells) | % CD98 down-regulation (CD98 (4F2hc, SLC3A2)) | IC50 [3] | further results |
| --- | --- | --- | --- | --- |
| CCCCCCCCc1ccc([C@H]2CCN[C@@H]2C)cc1 [Compound 13] |  |  |  | IC50 [1]: 4.4 ± 0.6 µM; IC50 ([2]; 72 h): 5.1 ± 0.6 µM |
| CCCCCCCCc1ccc(COC2CNC(CO)C2)cc1 (stereo not drawn) [Compound 102] | 33 ± 2 | 63 ± 3% | 2 µM |  |
| CCCCCCCCCCCCC/C=C/[C@@H](O)[C@@H](N)CO [Compound 106, sphingosine, reference compound] | 57 ± 6 | 48 ± 2% |  | concentration required to cause similar transporter loss (CD98 (4F2hc, SLC3A2); CD98 loss): 2.5 µM; IC50 ([3]; Mus musculus): 3.6 µM |
| CCCCC=Cc1ccc(COC2CNC(CO)C2)cc1 (stereo not drawn) [Compound 118] | 5 ± 2 | 9 ± 3% | 5.7 µM |  |
| CCCCCCCCc1ccc([C@@H]2CC(=O)N[C@@H]2CO)cc1 [Compound 11] |  |  |  | IC50 [1]: > 20 µM; IC50 ([2]; 72 h): > 20 µM |
| CCCCCCCCCCCCCCC[C@@H](O)[C@@H](N)CO [Compound 107, sphinganine, reference compound] | 38 ± 6 | 47 ± 3% |  | IC50 ([3]; Mus musculus): 3.5 µM |
| CCCCCCCCc1ccc(COC2CC(CO)N(C(C)=O)C2)cc1 (stereo not drawn) [Compound 131] | 1 ± 1 | 37 ± 3% | 29.7 µM | vacuolation (in words) (FL5.12 cells): no vacuolation activity; fold less potent than analog 102 ([3]; IC50, FL5.12 cells): 10 fold |
| CCCCCCCCCCCCCCc1ccc(COC2CNC(CO)C2)cc1 (stereo not drawn) [Compound 116] | 4 ± 2 | 12 ± 3% | 10.5 µM |  |
| CCCCCCCCc1ccc([C@@H]2CC(=O)N[C@H]2CO)cc1 [Compound 9, (4S,5R)-5-(hydroxymethyl)-4-(4-octylphenyl)Pyrrolidin-2-one] |  |  |  | IC50 ([1]; Homo sapiens): > 20 µM; IC50 ([2]; Homo sapiens, DU-145, 72 h): > 20 µM |
| CCCCCCCCc1ccc(C2CCNC2CO)cc1 (stereo not drawn) [Compound 8] |  |  |  | IC50 [1]: 6.5 ± 0.3 µM; IC50 ([2]; 72 h): 5.4 ± 0.3 µM |
| CCCCCCCCc1ccc(COC2CC(CO)N(C(=N)N)C2)cc1 (stereo not drawn) [Compound 133] | 0 | 34 ± 3% | 17.3 µM | ability to induce vacuole formation (FL5.12 cells): lost |
| CCCCCCCCc1ccc(C2CCNC2CO)cc1 (stereo not drawn) [Compound 7] |  |  |  | IC50 [1]: 5.5 ± 0.7 µM; IC50 ([2]; 72 h): 5.3 ± 0.7 µM |
| CCCCCCCCCCCCCCc1ccc(COC2CNC(CO)C2)cc1 (stereo not drawn) [Compound 123] | 3 ± 3 | 19 ± 1% | 5.7 µM |  |
| CCCCCCC=Cc1ccc(COC2CC(CO)N(C)C2)cc1 (stereo not drawn) [Compound 130] | 26 ± 2 | 31 ± 4% | 1.9 µM |  |
| CCCCCCCCc1ccc([C@H]2CCN(C(C)=O)[C@@H]2CO)cc1 [Compound 134] | 0 | 40 ± 4% | 39.7 µM | vacuolation (in words) (FL5.12 cells): failed to induce vacuolation |
